# Ends that are not written are not given here.
# Experiments:
# [1] = system: effector T cells (Teff) (CD4+CD127+); experiment: FACS of effector T cells of trial patients (PD-1, intracellular IL-17A, IL-23 receptor); assay type: in vivo, human
# Protocol: (§1) FIG. 3. Effector and regulatory T cell function differ according to clinical response: a. effector T cells (Teff) (CD4+CD127+) at beginning of the trial (TO) and end of the study (Tend) were compared for PD-1 expression in both SEQ ID NO. 1 clinical responders and placebo clinical non-responders by FACS. b. FACS-sorted Teffwere analyzed for IL-17 and for RORC. Teff were stained intracellularly with IL-17A, and analyzed by FACS. c. regulatory T cell (Treg) (CD4+CD25++CD127−) frequency (% of PBMC) was determined in SEQ ID NO. 1—treated clinical responders by FACS. […] Values are the mean and s.e.m. d. Treg functionality in SEQ ID NO. […] (placebo clinical non-responders vs SEQ ID NO. 1 clinical responders, —76.21+/−3.665 vs 8.443+/−4.677, n=2 vs 3, t-test p0.0010). Values are the mean and s.e.m.
# Therefore, a first hypothesis to test here is whether CD4+/CD127+T effector (Teff) cell anergy was induced by treatment with SEQ ID NO. 1. […] In addition, Teff were able to proliferate to conventional polyclonal stimuli (data not shown).
# Further analysis of Teff in SEQ ID NO. […] Conversely, an increased expression in IL-17A expression was detected in placebo—treated clinical non-responders. […] 1 induced an immune deviation of Teff with a reduction in the ability to produce pro-inflammatory cytokines.
# In FIG. 3b Y axis: % net change between Tend and T0 for both Teff producing IL-17A (first two columns, measured by FACS) and RORC expression (measured by TaqMan). […] Results were analyzed as a percentage of GAPDH. […] Values are the mean and s.e.m.
# [2] = system: regulatory T cell (Treg) (CD4+CD25++CD127−); experiment: Treg frequency in PBMC of trial patients by FACS; assay type: in vivo, human
# Protocol: as §1
# It is not detected in clinical responders a change in frequency of CD4+/CD25++/CD127-Treg between beginning and end of the trial (FIG. 3c). A highly significant difference between treatment responders and placebo non-responders was found in the suppressive ability of Treg at the end of the trial (FIG. 3d). This difference indicates a restoration of Treg functionality in clinical responders to treatment with SEQ ID NO. 1 (FIG. 3d and Sa).
# Successful treatment with SEQ ID NO: 1 therefore induced an immune deviation of Teff cells by reducing their ability to produce pro-inflammatory cytokines. […]
# [3] = system: regulatory T cell (Treg) (CD4+CD25++CD127−); experiment: Treg functionality: suppression of Teff proliferation (CFSE dilution); assay type: in vivo, human; conditions: SEQ ID NO. 1 clinical responders at Tend, n=3; mean and s.e.m.; placebo clinical non-responders —76.21+/−3.665
# Protocol: as §1, with “p0.0010). […]” for “p0.0010). Values are the mean and s.e.m.”
# FIG. 5. […] Treg ability to suppress Teff proliferation was determined by CFSE dilution. […] T(x)=Probability binning. % PD-1+Treg is expressed as percentage of the total Treg population (insets in both panels). d. […] The average pSTAT5 expression per cell for anti-PD-1 treatment, as determined by the average integral density per unit area, was calculated using ImageJ (Rasband, W. S., ImageJ, http://rsb.info.nih.gov/ij/, 1997-2009). […] Total Treg, PD-1+Treg and PD-1− Treg from clinical responders (n=S) at Tend were sorted and RNA expression of CTLA-4, FoxP3, IL-10 and TGF-β was measured by TaqMan. Data are expressed as 2(−dCT)×100 of GAPDH. […]
# [4] = system: Treg (CD4+CD25++CD127−) cells; experiment: PD-1 expression on Treg by FACS after incubation with SEQ ID NO. 1; assay type: cell-based, human; conditions: after incubation with 10 mg/ml of SEQ ID NO. 1
# Protocol: (§2) FIG. 5. PD-1 actively contributes to Treg function: a. Treg ability to suppress Teff proliferation was determined by CFSE dilution. A representative clinical responder is depicted. Treg cells were sorted by FACS according to the phenotype depicted in the table and incubated with Teff in the presence of 10 mg/ml of SEQ ID NO. 1. b. […] 1. c. […] 1. Line with white area under the curve depicts T0, grey area depicts Tend. T(x)=Probability binning. % PD-1+Treg is expressed as percentage of the total Treg population (insets in both panels). d. […] PD-1+Treg cells were stained by FACS after a 5-day incubation with Teff and APC in the presence or absence of anti-PD1 antibody. Details in methods. Line with white area under the curve depicts anti-PD1 treated, grey area depicts untreated. T(x)=Probability binning. e. pSTAT5 was examined in Treg via immunofluorescent microscopy. Cells, staining and slides were prepared according to procedures outlined in the methods. The average pSTAT5 expression per cell for anti-PD-1 treatment, as determined by the average integral density per unit area, was calculated using ImageJ (Rasband, W. S., ImageJ, http://rsb.info.nih.gov/ij/, 1997-2009). Untreated vs. anti-PD-1 treated: 38.79 vs. 33.07, standard deviation 4.27 vs. […], t-test p<0.0001. f. […] Teff were stained by FACS after a 5-day incubation in the presence or absence of anti-PD1 antibody. Details in methods. Line with white area under the curve depicts anti-PD1 treated, grey area depicts untreated. T(x)=Probability binning. g. Total Treg, PD-1+Treg and PD-1− Treg from clinical responders (n=S) at Tend were sorted and RNA expression of CTLA-4, FoxP3, IL-10 and TGF-β was measured by TaqMan. Data are expressed as 2(−dCT)×100 of GAPDH. […] 1 clinical responders (18.99+/−3.412 vs 2.693+/−1.434, n=S p=0.0130).
# PD-1+Treg and PD-1− Treg = experiment: TaqMan RNA expression in sorted total, PD-1+ and PD-1− Treg of clinical responders; assay type: in vivo, human; conditions: SEQ ID NO. 1 clinical responders at Tend
# Protocol: as §2
# To further characterize function of PD-1+Treg, mRNA was extracted from FACS-sorted CD4+/CD25++/CD127−total Treg, PD-1+Treg and PD-1-Treg and tested by qPCR for expression of various genes associated with Treg function.
# [5] = system: latent TGFβ binding protein 4 (LTBP-4) gene; experiment: Gene array analysis of PBMCs of trial patients; assay type: in vivo, human; conditions: SEQ ID NO: 1 responders (FIG. 14A)
# [6] = assay type: in vitro ADME; conditions: without a linker; data not shown
# Source text: This is synthetically of less interest to a person skilled in the art since it usually involves multiple-step synthesis for making the peptide. In the presence of the linker, the peptide SEQ ID No: 1 and the antirheumatic drug can be administered in equal proportion because the linker protects the peptide from degradation and thus enhance the stability of the peptide.
substance,measurement,setting,value
QKRAAYDQYGHAAFE-NH2 [SEQ ID NO. 1],IL-23 receptor expression in Teff,"[1]; SEQ ID NO. 1-treated clinical responders, not shown",decrease
same,Intracellular IL-17A expression in Teff cells,"[1]; clinical responders, Tend, T0 8.003+/−0.07839%, n=3, mean and s.e.m.",4.873+/−0.6933%
same,% of PD-1+ in the total Teff population,"[1]; clinical responders, end of trial (Tend), T0 6.312+/−1.428, n=5, mean+/−s.e.m.",4.930+/−1.433%
same,change of frequency of Tregs between beginning and end of the trial,[2]; FIG. 9B,did not change
same,Treg frequency in PBMC,"[2]; clinical responders, Tend, T0 7.773+/−1.432, n=4, mean and s.e.m.",7.610+/−1.519 % of PBMC
same,"Treg functionality, % suppression of Teff proliferation",[3],8.443+/−4.677 % suppression
same,PD-1+ Treg as percentage of total Treg,"[4]; clinical responder, T0",13.3%
same,PD-1+ Treg as percentage of total Treg,"[4]; clinical responder, Tend",41%
same,PD-1+ Treg as percentage of total Treg,"[4]; representative clinical non-responder, T0",15.5%
same,PD-1+ Treg as percentage of total Treg,"[4]; representative clinical non-responder, Tend",12.7%
same,"CTLA-4, FoxP3 and IL-10 expression between the different subsets of Treg",PD-1+Treg and PD-1− Treg,did not differ
same,TGF-β gene expression in PD-1+Treg,PD-1+Treg and PD-1− Treg,18.99+/−3.412 2(−dCT)×100 of GAPDH
same,TGF-β gene expression in PD-1− Treg,PD-1+Treg and PD-1− Treg,2.693+/−1.434 2(−dCT)×100 of GAPDH
same,expression of latent TGFβ binding protein 4 (LTBP-4) gene in PBMCs,[5],marginal upregulation
same,stability of the peptide upon ingestion,[6],prone to degradation upon ingestion
